Patent publication US5498624A, “Selected pyrazolyl derivatives” (Monsanto Company, priority 1995, dated 1996)
Where two headings read alike, the source gives them in different places.

Assays:
[1] = target: Succinate Dehydrogenase; experiment: Enzyme Inhibition I-50 (WGB): Succinate Dehydrogenase Assay using Septoria nodorum mitochondria; format: biochemical
Experimental: Succinate Dehydrogenase Assay using Septoria nodorum mitochondria--Septorianodorum mycelia are prepared from spores via shake culture for 40-48 hours in 3% malt extract at room temperature. The mycelia are harvested by centrifugation and the pellets obtained are stored in the -80° C. freezer until use.
Mitochondria are isolated by a method adapted from White (Biochem. Biophys. Res. Commun. 44 (1971) 1212-19). Fifteen to twenty grams of frozen mycelia are resuspended in a 250 mL medium containing 0.25M sucrose, 5 mM tetrasodium ethylenediamine tetraacetic acid (Na4 EDTA), pH 7.0 containing 1.5 g/liter bovine serum albumin (BSA) and placed in a Bead Beater chamber (BioSpec Products, Bartlesville, Okla.). Zirconium oxide beads (0.5 mm) are added to finish filling the chamber. Four 30s beats separated by 2 rain temperature equilibration periods on ice are used to break the mycelia. The homogenate is centrifuged for 20 min at 3000×g and 4° C. to remove debris. The supernatant is recentrifuged at 20,000×g for 20 min at 4° C. The resulting pellet is resuspended in BSA-free sucrose/EDTA medium (40 mL) using a glass tissue homogenizer and teflon pestle and recentrifuged at 27,000×g for 15 min at 4° C. The pellet is resuspended in BSA-free sucrose/EDTA medium (~3 mL) and used for SDH assays.
The enzyme activity is measured at […] in a solution containing 50 mM potassium phosphate, pH7.2; 1 mM potassium cyanide; 45 μM 2,6-dichlorophenol indophenol (DCPIP) and 17 mM disodium succinate in a final volume of 1 mL with a Perkin-Elmer Lambda 7 ultraviolet-visible spectrophotometer. The test compounds are added as acetone solutions (final concentration of acetone less than or equal to 1%(v/v)). The mitochondrial preparations are used to initiate the reaction. All rates are corrected for succinate-independent dye reduction. Semilog plots of percentage inhibition versus test compound concentration are used to determine inhibition expressed as I50 (μM) which is the concentration required to inhabit the rate of DCPIP reduction by 50%. The commercial fungicide carboxin is used as a standard throughout [I50 (μM)=5.0±2.2; n=52].

[2] = system: Erysiphe graminis f. sp. tritici; experiment: Wheat Powdery Mildew Foliar Assay (WPM Prot); format: in vivo
Experimental: A) Pathogen/Inoculum Production--Leaf material infected with the wheat powdery mildew fungus, Erysiphe graminis f. sp. tritici, is maintained continuously on wheat seedlings, cv. Caldewell.
(B) Host Propagation, (C) Compound Preparation and (D) Compound Application follow as per Example 1.
(E) Inoculation/Incubation--Inoculation of the test plants takes place 24 hours after compound application. Inoculation is accomplished by gently shaking plants previously infected with the Erysiphe graminis f. sp. tritici fungus over the test plants. This process liberates a cloud of spores which effectively and uniformly fall onto the test plants. After inoculation the plants are returned to the environmental conditions under which they were grown.
(F) Evaluation and (G) Data follow as per Example 1. The percent protection values for the compounds of the present invention are as set out in the Table below.

[3] = system: Septoria nodorum; experiment: Wheat Glume Blotch (WGB) In Vitro; format: cell-based; design: key: 0: no inhibition of mycelial growth; 1: slight inhibition of mycelial growth; 2: moderate inhibition of mycelial growth; 3: strong inhibition of mycelial growth; conditions: 4-6 days at 25° C.
Experimental: A) Pathogen/Inoculum Production--The wheat glume blotch fungus, Septoria nodorum, is cultured on yeast/malt agar at 22° C. and 12 hours fluorescent light. Several sterile loops full of mature pycnidia produced on a 7 day old culture plates are added to 30 mls of 1/4 strength potato dextrose broth. After 15 minutes the suspension is stirred, and adjusted to a concentration of 3×10^5 spores/mi.
B) Compound Preparation and Test Execution--200 μl of 1/4 strength potato dextrose broth is placed in each well of a 96 well microtiter plate. […] The commercial standard used is flusilazole, at equivalent rates.
C) Inoculation/Incubation--50 μl of a 3×10^5 spores/ml suspension obtained using the method above is added to each well. The 96-well plate is incubated for 4-6 days at 25° C., 12 hours fluorescent light.
(§1) D) Evaluation--After incubation, each well is visually assessed for growth inhibition on the following 0-3 scale:
(§2) 0=no inhibition of mycelial growth
(§3) 1=slight inhibition of mycelial growth
(§4) 2=moderate inhibition of mycelial growth
(§5) 3=strong inhibition of mycelial growth

[4] = system: Pseudocercosporella herpotrichoides var. tritici; experiment: Wheat True Eyespot In Vitro Assay (WES In Vitro); format: cell-based; design: key: 0: no inhibition of mycelial growth; 1: slight inhibition of mycelial growth; 2: moderate inhibition of mycelial growth; 3: strong inhibition of mycelial growth; conditions: 3 days at 19° C.
Experimental: A) Pathogen/Inoculum Production--A mycelial transfer of Pseudocercosporella herpotrichoides var. tritici is placed onto potato dextrose agar plates and allowed to grow for 40 days at 20 ° C., without light. Five agar discs are taken from the actively growing culture and are placed equidistant, mycelial side down, onto a water agar plate, and incubated at 10 ° C. with 10 hours of fluorescent light per day. After 5 days of incubation, sporulation on the transferred discs begins, and plates are flooded with 3-5 mls sterile deionized water. One-half ml aliquots are taken from the resulting spore suspension and placed on new water agar plates. Spores are spread across plates using a bent glass rod and incubated at 10 ° C. with 10 hour fluorescent light periods per day. In 5-10 days, a lawn of spores is produced and can be "harvested".
B) Compound Preparation and Test Execution--200 μl of 1/4 strength potato dextrose broth is placed in each well of a 96 well microtiter plate. […] The commercial standard used is prochloraz at equivalent rates.
C) Inoculation/Incubation--50 μl of a 1×10^6 spores/ml suspension harvested using the method above is added to each well. The 96 well plates are incubated for 3 days at 19° C. in the dark.
as §1, §2, §3, §4, §5

[5] = system: Septoria nodorum; experiment: Wheat Glume Blotch Foliar Assay, protectant (WGB Prot); format: in vivo; conditions: 10 ppm, application two days pre-inoculation
Experimental: A) Host Propagation--Winter wheat plants, cv. Caldwell, are grown in 5.7 cm^2 pots, three per pot, and maintained in a growth chamber set at 20° C., 80% RH with a 12 hour photoperiod.
B) Compound Preparation--A 1.0% stock solution of each of the compounds of the present invention is first prepared utilizing an appropriate solvent such as acetone, water or DMSO. This stock is then used to prepare the final spray solution which contains the compound at the desired dosage, eg 100 ppm and 20 ppm, acetone at 20% v/v, Tween®20 at .05% w/v, and water at about 80%. Commercial standard used is tebuconazole at equivalent rates.
C) Compound Application, Seedlings are sprayed at the two-leaf stage (GS 12) using a DeVilbiss Model 152 hand operated sprayer set at 15-20 psi. Six ml of the test solution per treatment are applied to three pots. In the protectant assay (EXAMPLE 8), the compound application is made two days pre-inoculation. In the curative assay (EXAMPLE 9), the compound is applied during a brief interruption of the disease incubation period two days post-inoculation.
D) Pathogen Production/Inoculation--The wheat glume blotch fungus, Septoria nodorum, is maintained in the pycnidial state on yeast malt agar (YMA) and transferred weekly by streaking a suspension of conidia obtained from a ten to twelve day old sporulating culture onto fresh YMA plates. The plates are incubated at 20° C. with a 12 hour photoperiod.
Test inoculum is prepared by flooding seven day old culture plates with deionized water amended with Tween®20 (0.1% v/v) and gently scraping the pycnidia to release the extruding masses of conidia. The resulting spore suspension is filtered through two layers of cheese cloth and adjusted to 4×10^6 spores/ml utilizing the Tween®20 solution.
Forty-eight hours after the compound application and prior to inoculation, the test plants are preconditioned for at least one hour in a dark growth chamber set at 20° C. and 100% RH. After the preconditioning period is over, the conidial suspension is applied to run-off using a DiVilbiss hand operated sprayer. The plants are then returned to the preconditioning chamber and incubated at the same settings for 96 hours. Light is supplied to the plants during the last twelve hours of incubation. At the end of the 96 hour period, the plants are returned to the environmental conditions under which they were grown.
E) Test Evaluation--Eight to ten days after removal from the high humidity chamber, or twelve to fourteen days after inoculation, treatments are evaluated by visually estimating the percentage of the leaf area (on the first leaf) covered with lesions. Three ratings are made on each pot which constitutes a replicate. Each replicate then receives a numerical mean by averaging the three values. Percent disease, as well as percent control values are calculated. The percent control values obtained from these assays for the compounds of the present invention are as set out in the Table below.

[6] = system: Botrytis cinerea Mitochondria; conditions: 1 μM concentration; cited from earlier work

CCO[C@H]1CC[C@H](c2ccccc2NC(=O)c2cn(C)nc2C(F)F)CC1 [Number 7, 1H-pyrazole-4-carboxamide, 3-(difluoromethyl)-N-[2-(4-ethoxycyclohexyl)phenyl]-1-methyl-,trans-]
IC50 ([1]; DCPIP reduction, read-out: WGB enzyme I-50): 170 nM | WPM Prot percent disease control ([2]; 500 ppm foliar protectant): 96% | WGB In Vitro growth inhibition 0-3 scale ([3]; 0.1 ppm): 0 | WGB In Vitro growth inhibition 0-3 scale ([3]; 0.5 ppm): 0 | WGB In Vitro growth inhibition 0-3 scale ([3]; 5.0 ppm): 1 | WES In vitro growth inhibition 0-3 scale ([4]; 0.1 ppm): 0 | WES In vitro growth inhibition 0-3 scale ([4]; 0.5 ppm): 0 | WES In vitro growth inhibition 0-3 scale ([4]; 5.0 ppm): 1

Cn1cc(C(=O)Nc2ccccc2C2CCC(C(F)(F)F)CC2)c(C(F)F)n1 (stereo not drawn) [Number 8]
WPM Prot percent disease control ([2]; 10 ppm foliar protectant): 91% | WGB Prot percent control [5]: 85%

CC1=C(C(=O)Nc2ccccc2)SCCO1 [carboxin, reference compound]
IC50 ([1]; standard throughout, n=52, read-out: I50): 5000 ± 2200 nM | respiratory inhibition [6]: 68%
